Patent publication US10787430B2, “Hemoglobin modifier compounds and uses thereof” (FronThera U.S. Pharmaceuticals LLC, priority 2016, dated 2020)
In brackets after ≈: the same amount, converted by molar mass. Like-named read-outs stand apart in the source and are kept apart here.

Experiments:
[1] = biological target: T1, hemoglobin (20% hct blood) (Homo sapiens, UniProt P68871+P69905); test: Dose-dependent whole blood OEC studies; assay type: cell-based; details: 37° C., 1 hr
T1 construct: Normal whole blood was collected from adult healthy donors; from tissue; host or cells: normal human whole blood (red blood cells), adult healthy donors
How it was run: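 Human whole blood at 20% hct shaken with 0.2, 0.5 or 1 mM compound at 37° C. for 1 hr; DMSO (1%) vehicle control. Oxygen equilibrium curves gave pO2 and Hb oxygen saturation (sO2), reported as delta p50%.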

[2] = Solubility in JP1, JP2 and FaSSIF buffers; assay type: physicochemical; details: 25 °C, thermodynamic from solid, room temperature
Procedure: Conditions: 1. JP1 buffer (84 mM HCl, 34.22 mM NaCl, pH 1.2); 2. JP2 buffer (50 mM phosphate buffer at pH 6.8); 3. FaSSIF buffer, pH 6.5 (Preparation: In about 0.9 L of purified water dissolve 0.420 g of NaOH (pellets), 4.470 g of NaH2PO4 (dihydrate), 6.186 g of NaCl; Adjust the pH to 6.5 with Sodium hydroxide 1N or Hydrochloric acid 1N, to make up to volume (1 L) with purified water at room temperature; Add 0.224 g of SIF Powder Original to about 0.5 L of pH 6.5 blank buffer and stir until powder is completely dissolved; Let stand for 2 hour. FaSSIF buffer is now ready to use.
Procedures: 1. accurately weighed about 2 mg test compounds and controls in whatman vials, then transferred 450 μL buffer in to the vials; 2. Filter pistons of miniuniprep vials were placed and compressed to the position of the liquid level to allow for contact. Vortexed for 2 minutes; 3. […] Miniunipreps were compressed to prepare the filtrates for injection into HPLC system; 5. Diluted the filtrates with buffer by a factor of 50 fold to make diluents; 6. Determined the test compound concentration of the diluents and filtrates using HPLC-UV.

CYP1A2 = biological target: T2, CYP1A2 (Homo sapiens, UniProt P05177); test: CYP inhibition evaluation in human liver microsomes; assay type: in vitro ADME
T2 construct: from tissue; host or cells: human liver microsomes
T2 sequence (P05177 1-516): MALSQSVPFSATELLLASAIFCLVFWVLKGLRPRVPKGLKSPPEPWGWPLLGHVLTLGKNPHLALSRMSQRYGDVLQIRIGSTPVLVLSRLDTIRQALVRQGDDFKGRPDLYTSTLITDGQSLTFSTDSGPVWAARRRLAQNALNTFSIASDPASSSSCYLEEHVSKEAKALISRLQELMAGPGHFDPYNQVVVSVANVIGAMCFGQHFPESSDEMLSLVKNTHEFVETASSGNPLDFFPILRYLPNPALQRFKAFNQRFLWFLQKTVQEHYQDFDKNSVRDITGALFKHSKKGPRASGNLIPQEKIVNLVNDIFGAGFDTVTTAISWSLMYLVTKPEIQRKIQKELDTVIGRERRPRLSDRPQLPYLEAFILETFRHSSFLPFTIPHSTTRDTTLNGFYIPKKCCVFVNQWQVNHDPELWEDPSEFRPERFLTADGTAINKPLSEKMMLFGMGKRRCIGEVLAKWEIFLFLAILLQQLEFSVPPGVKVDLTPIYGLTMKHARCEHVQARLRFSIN
Description: (§1) Example A5: CYP Inhibition Evaluation in Human Liver Microsomes

CYP2C19 = biological target: T3, CYP2C19 (Homo sapiens, UniProt P33261); test: as above; assay type: in vitro ADME
T3 construct: from tissue; host or cells: human liver microsomes
Description: as §1

CYP2C8 = biological target: T4, CYP2C8 (Homo sapiens, UniProt P10632); test: as above; assay type: in vitro ADME
T4 construct: from tissue; host or cells: human liver microsomes
T4 sequence (P10632 1-490): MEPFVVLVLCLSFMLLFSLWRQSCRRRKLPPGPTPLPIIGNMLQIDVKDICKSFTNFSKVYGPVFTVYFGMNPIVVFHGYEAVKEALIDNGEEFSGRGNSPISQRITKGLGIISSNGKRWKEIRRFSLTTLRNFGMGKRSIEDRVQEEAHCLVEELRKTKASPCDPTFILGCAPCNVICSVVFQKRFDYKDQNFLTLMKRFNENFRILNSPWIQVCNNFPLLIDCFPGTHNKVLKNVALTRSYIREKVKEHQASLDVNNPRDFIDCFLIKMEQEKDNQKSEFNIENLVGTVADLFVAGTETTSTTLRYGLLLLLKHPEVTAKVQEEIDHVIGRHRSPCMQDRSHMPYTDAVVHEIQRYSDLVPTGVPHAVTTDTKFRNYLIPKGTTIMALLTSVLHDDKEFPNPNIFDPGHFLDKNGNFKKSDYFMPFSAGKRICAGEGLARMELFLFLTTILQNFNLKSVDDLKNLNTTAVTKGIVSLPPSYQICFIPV
Description: as §1

CYP2C9 = biological target: T5, CYP2C9 (Homo sapiens, UniProt P11712); test: as above; assay type: in vitro ADME
T5 construct: from tissue; host or cells: human liver microsomes
Description: as §1

CYP2D6 = biological target: T6, CYP2D6 (Homo sapiens, UniProt P10635); test: as above; assay type: in vitro ADME
T6 construct: from tissue; host or cells: human liver microsomes
Description: as §1

CYP3A4-M = biological target: T7, CYP3A4-M (Homo sapiens, UniProt P08684); test: as above; assay type: in vitro ADME
T7 construct: from tissue; host or cells: human liver microsomes
Description: as §1

[3] = Microsome stability evaluation in rat liver microsomes; assay type: in vitro ADME; details: read-out: Rat microsome, t½
Description: (§2) Example A6: Microsome Stability Evaluation in Human and Rat Liver Microsomes

[4] = Microsome stability evaluation in human liver microsomes; assay type: in vitro ADME; details: read-out: Human microsome, t½
Description: as §2

T1 sequence (P69905 2-142 limits assumed): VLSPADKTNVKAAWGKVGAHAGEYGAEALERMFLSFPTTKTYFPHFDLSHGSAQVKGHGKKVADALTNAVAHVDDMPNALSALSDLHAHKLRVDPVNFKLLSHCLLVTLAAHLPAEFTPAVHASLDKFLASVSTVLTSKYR
T1 sequence (P68871 2-147 limits assumed): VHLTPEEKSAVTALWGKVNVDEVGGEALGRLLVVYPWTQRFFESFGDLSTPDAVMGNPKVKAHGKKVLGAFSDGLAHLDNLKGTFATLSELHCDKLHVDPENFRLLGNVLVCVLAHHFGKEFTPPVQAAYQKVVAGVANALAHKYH
T6 sequence (P10635 whole entry): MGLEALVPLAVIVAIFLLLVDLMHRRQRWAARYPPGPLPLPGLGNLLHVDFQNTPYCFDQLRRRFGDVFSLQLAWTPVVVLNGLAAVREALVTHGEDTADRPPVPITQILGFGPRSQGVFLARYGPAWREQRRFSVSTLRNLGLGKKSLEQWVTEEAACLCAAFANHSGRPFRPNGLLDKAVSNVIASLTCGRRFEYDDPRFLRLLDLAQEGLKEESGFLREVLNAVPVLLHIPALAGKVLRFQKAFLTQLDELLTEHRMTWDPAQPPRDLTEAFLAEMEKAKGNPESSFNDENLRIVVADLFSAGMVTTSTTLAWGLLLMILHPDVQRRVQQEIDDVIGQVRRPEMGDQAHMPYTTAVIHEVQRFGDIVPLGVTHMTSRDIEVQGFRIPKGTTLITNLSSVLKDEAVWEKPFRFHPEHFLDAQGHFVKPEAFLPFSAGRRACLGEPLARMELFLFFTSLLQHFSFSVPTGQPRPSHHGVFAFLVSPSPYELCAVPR
T7 sequence (P08684 whole entry): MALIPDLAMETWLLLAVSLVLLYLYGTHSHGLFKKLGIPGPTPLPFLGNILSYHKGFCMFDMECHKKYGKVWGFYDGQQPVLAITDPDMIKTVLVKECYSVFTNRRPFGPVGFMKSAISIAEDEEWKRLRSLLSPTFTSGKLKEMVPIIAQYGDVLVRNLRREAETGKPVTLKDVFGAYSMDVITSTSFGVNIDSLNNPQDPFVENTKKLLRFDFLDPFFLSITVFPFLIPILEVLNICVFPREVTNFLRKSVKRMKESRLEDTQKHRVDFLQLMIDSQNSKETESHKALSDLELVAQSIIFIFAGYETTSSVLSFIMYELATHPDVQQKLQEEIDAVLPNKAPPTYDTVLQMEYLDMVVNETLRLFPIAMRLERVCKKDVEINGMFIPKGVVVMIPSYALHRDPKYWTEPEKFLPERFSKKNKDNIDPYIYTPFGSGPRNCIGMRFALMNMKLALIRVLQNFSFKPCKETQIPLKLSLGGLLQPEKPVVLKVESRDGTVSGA
T3 sequence (P33261 whole entry): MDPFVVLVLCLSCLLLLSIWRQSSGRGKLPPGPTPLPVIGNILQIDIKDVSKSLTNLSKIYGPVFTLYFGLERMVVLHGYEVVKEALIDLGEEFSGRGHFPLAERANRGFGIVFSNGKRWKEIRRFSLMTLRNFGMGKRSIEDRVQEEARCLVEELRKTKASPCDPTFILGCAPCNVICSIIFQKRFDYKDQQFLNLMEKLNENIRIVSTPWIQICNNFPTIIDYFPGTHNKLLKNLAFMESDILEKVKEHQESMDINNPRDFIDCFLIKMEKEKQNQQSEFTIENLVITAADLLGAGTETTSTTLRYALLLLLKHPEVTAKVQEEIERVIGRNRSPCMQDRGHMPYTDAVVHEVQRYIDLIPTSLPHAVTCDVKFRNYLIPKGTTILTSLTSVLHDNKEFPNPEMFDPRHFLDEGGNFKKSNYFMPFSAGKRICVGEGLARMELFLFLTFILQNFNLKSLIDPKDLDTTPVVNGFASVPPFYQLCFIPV
T5 sequence (P11712 whole entry): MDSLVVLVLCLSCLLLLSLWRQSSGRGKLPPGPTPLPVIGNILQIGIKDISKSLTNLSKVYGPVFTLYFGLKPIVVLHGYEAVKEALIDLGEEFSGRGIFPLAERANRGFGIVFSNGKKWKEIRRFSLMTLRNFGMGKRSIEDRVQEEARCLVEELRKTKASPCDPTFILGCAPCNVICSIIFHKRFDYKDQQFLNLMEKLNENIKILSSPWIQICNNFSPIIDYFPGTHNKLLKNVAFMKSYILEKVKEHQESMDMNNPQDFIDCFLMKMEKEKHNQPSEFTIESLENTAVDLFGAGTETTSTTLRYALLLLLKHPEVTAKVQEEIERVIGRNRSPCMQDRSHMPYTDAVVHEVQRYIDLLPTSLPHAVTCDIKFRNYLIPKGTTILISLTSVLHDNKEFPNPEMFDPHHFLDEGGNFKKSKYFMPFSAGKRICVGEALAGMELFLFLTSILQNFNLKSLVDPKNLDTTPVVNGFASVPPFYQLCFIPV

[2H]C([2H])(Oc1cccc(O)c1C=O)c1cncnc1-c1ccnn1C(C)C [Example 38, 2-hydroxy-6-((4-(1-isopropyl-1H-pyrazol-5-yl)pyrimidin-5-yl)methoxy-d2)benzaldehyde]
delta p50 0.2 mM ([1]; 0.2 mM compound): −15.20% | delta p50 0.5 mM ([1]; 0.5 mM compound): −46.80% | solubility at 24 h ([2]; aqueous buffer, JP2 buffer (50 mM phosphate) pH 6.8, 24 hr, read-out: JP2 Solubility): 15.1 µg/mL (≈ 44.4 µM) | solubility at 24 h ([2]; simulated gastric fluid, JP1 buffer pH 1.2, 24 hr, read-out: JP1 Solubility): 20 µg/mL (≈ 58.6 µM) | solubility at 24 h ([2]; FaSSIF buffer pH 6.5, 24 hr, read-out: FaSSIF Solubility): 26.6 µg/mL (≈ 78.1 µM) | IC50 (CYP1A2): > 30 µM | IC50 (CYP2C19): 8.61 µM | IC50 (CYP2C8): 25.2 µM | IC50 (CYP2C9): 10.6 µM | IC50 (CYP2D6): > 30 µM | IC50 (CYP3A4-M): > 30 µM | half-life [3]: 18 min | half-life [4]: 38 min
